Test results: patent publication US4699898A, “Tripeptides affecting immune response” (Imreg, Inc., priority 1985, dated 1987)
Residues, ends and D or L forms follow the SMILES beside them.

Tested on: dermal reaction to tetanus toxoid antigen
Details: in vivo

In the case of `N[C@@H](Cc1ccc(O)cc1)C(=O)NCC(=O)NCC(=O)O` [TGG, Tyr-Gly-Gly] (H-Tyr-Gly-Gly-OH), the “Dermal reaction without antigen” value is reported as “No reaction was observed”.
